Experimental data as given in PubChem BioAssay (NCI).
Values joined by “and” are separate entries in the source; they are usually repeats but may differ in a detail not shown here. Equal entries are not always repeated.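 Protocol summary: plate cells (96-well), add compound at 5 concentrations, incubate 48 h, interpolate endpoints linearly. GI50 = concentration required for 50% inhibition of growth. The concentration for full growth arrest is given as TGI.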

Experiments:
Experiment in all cases: inhibition of tumour cell growth, NCI panel, 48 h
[1] = system: DMS 273 small cell lung
[2] = system: HOP-18 NSCLC
[3] = system: KM20L2 colon
[4] = system: LXFL 529 NSCLC
[5] = system: M19-MEL melanoma
[6] = system: HS 578T breast
[7] = system: MDA-N
[8] = system: NCI/ADR-RES ovarian
[9] = system: RXF-631 renal

Row | SMILES | TGI [1] | TGI [4] | TGI [5] | TGI [6] | TGI [8] | GI50 [6] | GI50 [8] | further results
1 | CCC1c2cc3n(c(=O)c2COC1O)Cc1c-3nc2ccccc2c1Cl (configuration not stated) | > 100 µM | > 100 µM | > 100 µM | – | – | – | – | TGI [2]: > 100 µM; TGI [3]: > 100 µM
2 | CN(C)CC1CCCCCCCCCCCCC(CN(C)C)C1=O (configuration not stated) | 22.9 µM | 28.1 µM | 25.1 µM | – | – | – | – | TGI [2]: 30.1 µM; TGI [3]: 24.9 µM
3 | Cn1c(=O)c2[nH]c(CCCc3ccc([N+](=O)[O-])cc3)nc2n(C)c1=O | – | – | – | > 100 µM | > 100 µM | – | – | TGI [7]: > 100 µM
4 | COc1cc(/C=C/C(=O)c2c(C)nc3ccccc3c2C)ccc1OCCCCOc1cc2c(cc1OC)C(=O)N1CCC[C@H]1C=N2 | – | – | – | 0.624 µM | 40.4 µM | 0.229 µM | 3.06 µM | –
5 | CCOC(=O)[C@@H](C)C[C@H](Cc1ccccc1)NC(=O)c1csc([C@@H](C[C@H](C(C)C)N(C)C(=O)[C@@H](NC(=O)[C@H]2C[C@H](O)CCN2C)C(C)C)OC(C)=O)n1 | – | – | – | > 16.7 µM | > 16.7 µM | 0.00906 µM | 2.67 µM | –
6 | O=C(/C=C/c1cccc(S(=O)(=O)Nc2ccccc2)c1)NO | – | – | – | > 81.8 µM and 34.9 µM | 6.51 µM | 1.28 µM and 0.52 µM | – | –
7 | O=C1NC(=O)C(c2ccccc2)=C1Nc1ccccc1 | – | – | – | > 25 µM | > 25 µM | 16.3 µM | > 25 µM | –
8 | O=C1/C(=C\c2ccccc2)CN(C(=O)c2ccccc2)C/C1=C\c1ccccc1 | – | – | – | 7.21 µM | 37.6 µM | 2.31 µM | 3.69 µM | –
9 | CCCCN(CC)CCCCCCCCCCN1CCCc2cc(OC)ccc21 | – | – | – | > 100 µM | 6.15 µM | 4.2 µM | 2.07 µM | –
10 | COC(=O)[C@@H](C)C[C@H](Cc1ccccc1)NC(=O)c1csc([C@@H](C[C@H](C(C)C)N(C)C(=O)C2(NC(=O)[C@H]3CCCCN3C)CCC2)OC(C)=O)n1 | – | – | – | – | > 25 µM | 0.0463 µM | 16.9 µM | –
11 | Brc1ccc(Nc2nc3ccccc3nc2Nc2ccc(Br)cc2)cc1 | – | – | – | 9.05 µM | 10.5 µM | 2.9 µM | 1.62 µM | –
12 | C=CCC12CCC(=O)[C@@]1(C)CC=C(O)C2=O (some centres not stated) | > 100 µM | > 100 µM | > 100 µM | – | – | – | – | TGI [2]: > 100 µM; TGI [3]: > 100 µM
13 | O=[N+]([O-])c1ccc(/C(Cl)=C/c2ccc(/C=C(\Cl)c3ccc([N+](=O)[O-])cc3[N+](=O)[O-])cc2)c([N+](=O)[O-])c1 | > 100 µM | > 100 µM | > 100 µM | – | – | – | – | TGI [9]: > 100 µM
14 | O=C1c2cccnc2C(=O)c2c1c(C(=O)OCCc1ccccn1)c1ccccn21 | – | – | – | 3.21 µM | 1.15 µM | < 0.0338 µM | 0.0252 µM | –
15 | C=C1C(=O)c2cc3c(cc2C(c2cc(OC)c(OC)c(OC)c2)[C@@H]1C(=O)O)OCO3 (some centres not stated) | – | > 100 µM | > 100 µM | – | – | – | – | TGI [2]: > 100 µM
16 | Oc1ccc(Cc2ccc(O)c(C3CC(c4ccc(Cl)cc4)=NN3)c2)cc1C1CC(c2ccc(Cl)cc2)=NN1 (configuration not stated) | – | – | – | 24.8 µM | > 34.5 µM | 2.48 µM | 2.54 µM | –
17 | CC(=O)N(CCN1C(=O)c2ccccc2C1=O)CCN1C(=O)c2ccccc2C1=O | > 100 µM | > 100 µM | > 100 µM | – | – | – | – | TGI [3]: > 100 µM
18 | CN(CSc1ccc(Cl)cc1)c1ccc(CSc2ccc(Cl)cc2)cc1 | – | – | – | 21.1 µM | 30.1 µM | 3.7 µM | 8 µM | –

Row | SMILES | TGI [1] | TGI [4] | TGI [5] | TGI [6] | TGI [8] | GI50 [6] | GI50 [8] | further results
19 | O=C(Nc1ccc(I)cc1)c1cccc([N+](=O)[O-])c1O | – | – | – | 87.7 µM | > 100 µM | 4.13 µM | 2.94 µM | –
20 | COC(=O)c1nc(C(=O)OC)c2c([nH]c3ccccc32)c1C(=O)OC | > 100 µM | > 100 µM | – | – | – | – | – | –
21 | COc1ccccc1NC(=O)C(=O)Cc1cnc2ccccc2n1 | – | – | – | > 100 µM | > 100 µM | – | – | TGI [7]: > 100 µM
22 | CC(C)OCc1cc(CN2CCN(c3cccc(Cl)c3)CC2)c(O)c2ncccc12 | – | – | – | 35.3 µM | 10.6 µM | 4.03 µM | 0.203 µM | –
23 | N#Cc1c2ccccc2c2nnc3ccc(C(F)(F)F)cc3n12 | – | – | – | – | > 100 µM | – | 72.7 µM | –
24 | NS(=O)(=O)c1ccc(N=C2C(=O)Nc3ccccc32)cc1 | – | – | – | > 100 µM | > 100 µM | – | – | TGI [7]: > 100 µM
25 | c1ccc(-c2cn(-c3ccccc3)c(-c3ccccc3)n2)cc1 | – | – | – | – | 44.9 µM | – | 19.6 µM | –
26 | NCCCNc1nc2ccc(Cl)cc2c2c(=O)c3cc(F)ccc3sc12 | – | – | – | 17.7 µM | 5.62 µM | 3.22 µM | 2.23 µM | –
27 | O=C1NC(=O)C2C1C1C=C3c4ccccc4N(c4ccccc4)C32[C@H]2C(=O)NC(=O)[C@@H]12 (some centres not stated) | > 100 µM | > 100 µM | > 100 µM | – | – | – | – | TGI [2]: > 100 µM; TGI [3]: > 100 µM
28 | C=C1c2[nH]c3ccccc3c2CC(C(=O)O)N1C(O)c1ccc(S(=O)(=O)O)cc1 (configuration not stated) | > 100 µM | > 100 µM | > 100 µM | – | – | – | – | TGI [9]: > 100 µM
29 | COC1=CC(=O)OC(/C=C(C)/C=C/C2=C(C)CCCC2(C)C)C1 (configuration not stated) | > 100 µM | > 100 µM | > 100 µM | – | – | – | – | TGI [3]: > 100 µM
30 | N#Cc1ccc(C(C2C(=O)NC(=O)NC2=O)C2C(=O)NC(=O)NC2=O)cc1 | > 100 µM | > 100 µM | > 100 µM | – | – | – | – | TGI [3]: > 100 µM
31 | C=C(CN1CCN(c2ccccc2C(F)(F)F)CC1)c1ccc(C(=O)Nc2ccccc2N)cc1 | – | – | – | > 100 µM | 10.5 µM | 12.8 µM | 2.01 µM | –
32 | CC(C)(CN1CCCCC1)C(=O)CC(SCCN)c1ccc(Cl)cc1 (configuration not stated) | 4.96 µM | 3.33 µM | 7.39 µM | – | – | – | – | TGI [3]: 5.43 µM; TGI [9]: 14.3 µM
33 | CCN(CC)CC(O)COc1c(Br)c(Br)c(Br)c2c1OC(C)(C)C2 (configuration not stated) | – | – | – | 19 µM | 25.5 µM | 4.58 µM | 7.69 µM | –
34 | O=C(Cc1ccccc1)NN1C(=O)C(Cl)C1c1cccc([N+](=O)[O-])c1 (configuration not stated) | > 100 µM | 49.7 µM | > 37.1 µM | – | – | – | – | TGI [2]: > 100 µM; TGI [3]: > 100 µM
35 | COc1ncc(-c2ccc3nccc(C#CCN4CCN(S(C)(=O)=O)CC4)c3c2)cc1NS(=O)(=O)c1ccc(F)cc1F | – | – | – | – | 12.4 µM | – | 0.465 µM | –
